The target in one series is ALK (h) (Homo sapiens (Human), UniProt Q9UM73). As to the kind of experiment: Kinase assay, single dose inhibition (Millipore, 33P-ATP filter binding). It counts as biochemical. The conditions noted are these: 0.1 μM test compound, 10 μM ATP; remaining activity relative to DMSO control = 100%.
Another series addresses EGFR (h) (Homo sapiens (Human), UniProt P00533). Described as above. It counts as biochemical. The following applies: 0.1 μM test compound, 10 μM ATP; remaining activity relative to DMSO control = 100%.
The next series has as its system A431 (EGFR WT) cells. As to the kind of experiment: Cell proliferation assay (MTS cell viability). The format is cell-based. The following applies: Homo sapiens, A-431, 72 h, 3 days of exposure.
For a further series, the target named is EGFR (L858R) (h) (Homo sapiens (Human), UniProt P00533, L858R). As to the kind of experiment: Kinase assay, single dose inhibition (Millipore, 33P-ATP filter binding). The format is biochemical. The conditions noted are these: 0.1 μM test compound, 10 μM ATP; remaining activity relative to DMSO control = 100%.
Series [1] has as its system A549 (EGFR WT) NSCLC cells. As to the kind of experiment: Cell proliferation assay (MTS cell viability). The format is cell-based. The conditions noted are these: Homo sapiens; for IC50: 72 h, A549 cells, 3 days of exposure, MTS; for GI50: A549.
A further series addresses EGFR (ErbB1) T790M (Homo sapiens (Human), UniProt P00533, T790M). As to the kind of experiment: Kinase assay (IC50), fluorescence peptide assay. It counts as biochemical. The conditions noted are these: 10 pt curve, 1 μM top concentration, Km ATP.
In a further series the target is EGFR (T790M, L858R) (h) (Homo sapiens (Human), UniProt P00533, L858R/T790M). As to the kind of experiment: Kinase assay, single dose inhibition (Millipore, 33P-ATP filter binding). It counts as biochemical. The following applies: 0.1 μM test compound, 10 μM ATP; remaining activity relative to DMSO control = 100%.
In another series the target is EGFR (ErbB1) T790M L858R (Homo sapiens (Human), UniProt P00533, L858R/T790M).
For another series, the target named is EGFR (ErbB1) (Homo sapiens (Human), UniProt P00533). As to the kind of experiment: Kinase assay (IC50), fluorescence peptide assay. The format is biochemical. The conditions noted are these: EGFR WT; 10 pt curve, 10 μM top concentration, Km ATP.
A further series concerns the target ALK (Homo sapiens (Human), UniProt Q9UM73). As to the kind of experiment: Kinase assay (IC50), fluorescence peptide assay. The format is biochemical. The conditions noted are these: 10 pt curve, 1 μM top concentration, Km ATP.
Series [2] relates to HCC827 (EGFR Del) NSCLC cells. As to the kind of experiment: Cell proliferation assay (MTS cell viability). The conditions noted are these: Homo sapiens; for IC50: 72 h, HCC827 cells, 3 days of exposure, MTS; for GI50: HCC827, one set of studies, read-out: GI50, proliferation of HCC827 cells expressing EGFR Del. The format is cell-based.
In a further series the target is EGFR (ErbB1) L858R (Homo sapiens (Human), UniProt P00533, L858R). As to the kind of experiment: Kinase assay (IC50), fluorescence peptide assay. The following applies: read-out: IC50 EGFR (ErbB1) L858R; 10 pt curve, 1 μM top concentration, Km ATP.
Another series has as its target EGFR (T790M) (h) (Homo sapiens (Human), UniProt P00533, T790M). As to the kind of experiment: Kinase assay, single dose inhibition (Millipore, 33P-ATP filter binding). The format is biochemical. The conditions noted are these: 0.1 μM test compound, 10 μM ATP; remaining activity relative to DMSO control = 100%.
In series [3] the test system is H1975 (EGFR L858R/T790M) NSCLC cells. As to the kind of experiment: Cell proliferation assay (MTS cell viability). The following applies: Homo sapiens; for IC50: NCI-H1975, 72 h, H1975 cells, 3 days of exposure, MTS; for GI50: NCI-H1975, one set of studies, read-out: GI50, proliferation of H1975 cells expressing EGFR-L858R/T790M. It counts as cell-based.
Series [4] has as its system activated and resistant T790M forms of EGFR; EGFR WT. As to the kind of experiment: In vitro cellular assays, statements across cell lines. The conditions noted are these: result in words. The format is cell-based.
Series [5] deals with Ba/F3 cells harboring EGFR T790M in conjunction with different exon 19 deletion mutations. The conditions noted are these: read-out: IC50 required to inhibit the growth of Ba/F3 cells harboring EGFR T790M; cited from earlier work.
The conditions of series [6]: Phase I trial; cited from earlier work.
The subject of another series is lung cancer patients. The conditions noted are these: all lung cancer patients, not selected for EGFR mutation; cited from earlier work.
For series [7], the system named is patients with EGFR mutations. The conditions noted are these: six prospective trials; cited from earlier work.
Where [8] appears, read: read-out: IC50 EGFR (ErbB1) T790M L858R, 10 pt curve, 1 μM top concentration, Km ATP.

Where two headings read alike, the source gives them in different places.

EGFR (ErbB1), sequence (P00533 25-1210): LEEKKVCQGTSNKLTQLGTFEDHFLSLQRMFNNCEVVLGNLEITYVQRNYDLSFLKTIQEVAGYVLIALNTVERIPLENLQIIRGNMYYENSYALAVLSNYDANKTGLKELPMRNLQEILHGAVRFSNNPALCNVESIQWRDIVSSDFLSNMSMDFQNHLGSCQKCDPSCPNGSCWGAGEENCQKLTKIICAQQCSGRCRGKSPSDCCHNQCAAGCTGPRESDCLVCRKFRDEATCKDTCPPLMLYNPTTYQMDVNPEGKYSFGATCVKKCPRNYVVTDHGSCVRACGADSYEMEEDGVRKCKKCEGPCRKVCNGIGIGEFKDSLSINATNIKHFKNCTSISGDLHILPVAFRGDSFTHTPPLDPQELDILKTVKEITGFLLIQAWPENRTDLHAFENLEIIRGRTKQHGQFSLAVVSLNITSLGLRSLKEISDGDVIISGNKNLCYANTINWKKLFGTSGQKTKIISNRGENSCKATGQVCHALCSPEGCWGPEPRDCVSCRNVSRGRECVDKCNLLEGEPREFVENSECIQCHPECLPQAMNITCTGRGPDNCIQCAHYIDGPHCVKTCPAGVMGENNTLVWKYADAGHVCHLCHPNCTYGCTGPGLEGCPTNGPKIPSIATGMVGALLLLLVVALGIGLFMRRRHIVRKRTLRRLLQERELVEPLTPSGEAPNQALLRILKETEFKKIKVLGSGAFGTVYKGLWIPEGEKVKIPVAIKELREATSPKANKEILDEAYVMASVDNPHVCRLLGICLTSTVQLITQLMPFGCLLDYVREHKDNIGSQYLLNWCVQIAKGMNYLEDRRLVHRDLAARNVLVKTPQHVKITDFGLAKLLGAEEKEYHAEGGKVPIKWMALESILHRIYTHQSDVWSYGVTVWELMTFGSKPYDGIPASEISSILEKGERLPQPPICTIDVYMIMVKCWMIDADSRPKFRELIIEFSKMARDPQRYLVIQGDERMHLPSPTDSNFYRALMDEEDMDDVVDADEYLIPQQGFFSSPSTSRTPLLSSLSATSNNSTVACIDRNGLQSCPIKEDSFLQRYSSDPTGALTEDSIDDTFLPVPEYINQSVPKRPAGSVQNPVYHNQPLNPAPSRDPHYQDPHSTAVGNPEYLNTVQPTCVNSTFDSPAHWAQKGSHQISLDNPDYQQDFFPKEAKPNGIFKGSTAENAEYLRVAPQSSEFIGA
EGFR (ErbB1) T790M L858R, sequence (P00533 25-1210 T790M/L858R): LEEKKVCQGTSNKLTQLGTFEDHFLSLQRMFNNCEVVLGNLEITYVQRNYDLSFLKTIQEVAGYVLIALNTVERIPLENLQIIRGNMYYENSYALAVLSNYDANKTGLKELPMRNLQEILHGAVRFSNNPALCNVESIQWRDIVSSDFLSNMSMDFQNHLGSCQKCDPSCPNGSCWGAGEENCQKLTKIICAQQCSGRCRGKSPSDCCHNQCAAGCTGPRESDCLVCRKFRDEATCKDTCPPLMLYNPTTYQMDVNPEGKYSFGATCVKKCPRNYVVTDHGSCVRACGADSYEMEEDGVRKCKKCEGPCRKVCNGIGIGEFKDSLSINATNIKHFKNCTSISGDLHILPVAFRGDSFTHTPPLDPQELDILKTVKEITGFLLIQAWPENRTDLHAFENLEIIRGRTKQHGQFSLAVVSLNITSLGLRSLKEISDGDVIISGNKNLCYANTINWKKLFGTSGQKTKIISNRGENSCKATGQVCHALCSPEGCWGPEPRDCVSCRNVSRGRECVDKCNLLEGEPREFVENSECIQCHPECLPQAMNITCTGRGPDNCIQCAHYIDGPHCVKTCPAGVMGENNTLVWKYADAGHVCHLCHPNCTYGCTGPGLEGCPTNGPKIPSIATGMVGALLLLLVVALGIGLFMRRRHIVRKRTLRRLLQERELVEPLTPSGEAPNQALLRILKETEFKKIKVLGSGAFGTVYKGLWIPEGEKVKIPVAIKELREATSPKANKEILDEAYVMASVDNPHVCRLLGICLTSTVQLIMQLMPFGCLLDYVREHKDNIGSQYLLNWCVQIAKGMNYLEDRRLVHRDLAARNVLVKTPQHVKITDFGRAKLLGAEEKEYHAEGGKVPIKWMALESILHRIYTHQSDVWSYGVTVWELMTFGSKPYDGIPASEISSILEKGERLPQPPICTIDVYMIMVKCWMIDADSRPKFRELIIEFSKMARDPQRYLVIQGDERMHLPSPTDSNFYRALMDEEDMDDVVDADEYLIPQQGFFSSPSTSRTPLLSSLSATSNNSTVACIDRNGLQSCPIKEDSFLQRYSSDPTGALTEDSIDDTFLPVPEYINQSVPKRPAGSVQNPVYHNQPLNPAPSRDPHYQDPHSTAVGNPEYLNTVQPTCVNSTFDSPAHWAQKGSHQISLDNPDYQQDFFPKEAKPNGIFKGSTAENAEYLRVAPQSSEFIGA
EGFR (ErbB1) L858R, sequence (P00533 25-1210 L858R): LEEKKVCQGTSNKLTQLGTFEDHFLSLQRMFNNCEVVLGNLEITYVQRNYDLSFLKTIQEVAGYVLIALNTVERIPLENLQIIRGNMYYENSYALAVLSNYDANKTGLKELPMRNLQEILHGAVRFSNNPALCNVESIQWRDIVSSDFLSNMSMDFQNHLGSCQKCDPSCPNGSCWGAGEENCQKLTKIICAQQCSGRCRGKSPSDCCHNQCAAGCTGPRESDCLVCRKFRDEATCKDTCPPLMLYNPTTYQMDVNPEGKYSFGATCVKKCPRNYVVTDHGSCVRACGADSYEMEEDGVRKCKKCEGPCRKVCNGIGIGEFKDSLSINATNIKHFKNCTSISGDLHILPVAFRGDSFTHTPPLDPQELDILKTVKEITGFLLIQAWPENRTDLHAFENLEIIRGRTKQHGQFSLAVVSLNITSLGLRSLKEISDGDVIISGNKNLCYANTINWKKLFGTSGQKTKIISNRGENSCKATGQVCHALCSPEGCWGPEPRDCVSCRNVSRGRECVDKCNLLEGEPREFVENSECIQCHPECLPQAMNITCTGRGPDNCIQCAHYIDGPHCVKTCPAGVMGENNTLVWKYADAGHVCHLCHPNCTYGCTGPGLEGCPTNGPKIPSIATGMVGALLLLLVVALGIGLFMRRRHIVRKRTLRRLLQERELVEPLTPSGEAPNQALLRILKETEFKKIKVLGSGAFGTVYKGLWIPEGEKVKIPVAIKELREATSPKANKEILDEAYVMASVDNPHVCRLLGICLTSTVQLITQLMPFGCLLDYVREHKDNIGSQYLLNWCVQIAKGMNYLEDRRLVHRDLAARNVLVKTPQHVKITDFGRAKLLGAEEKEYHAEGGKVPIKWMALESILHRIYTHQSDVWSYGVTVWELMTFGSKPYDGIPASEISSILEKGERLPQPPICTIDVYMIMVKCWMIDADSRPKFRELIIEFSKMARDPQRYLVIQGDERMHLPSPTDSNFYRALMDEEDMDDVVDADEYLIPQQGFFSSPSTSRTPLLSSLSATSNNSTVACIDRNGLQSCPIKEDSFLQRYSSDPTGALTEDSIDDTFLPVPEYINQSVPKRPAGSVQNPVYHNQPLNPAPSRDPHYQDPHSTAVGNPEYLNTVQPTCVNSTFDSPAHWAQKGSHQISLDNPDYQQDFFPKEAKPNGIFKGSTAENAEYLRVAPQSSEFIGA
EGFR (ErbB1) T790M, sequence (P00533 25-1210 T790M): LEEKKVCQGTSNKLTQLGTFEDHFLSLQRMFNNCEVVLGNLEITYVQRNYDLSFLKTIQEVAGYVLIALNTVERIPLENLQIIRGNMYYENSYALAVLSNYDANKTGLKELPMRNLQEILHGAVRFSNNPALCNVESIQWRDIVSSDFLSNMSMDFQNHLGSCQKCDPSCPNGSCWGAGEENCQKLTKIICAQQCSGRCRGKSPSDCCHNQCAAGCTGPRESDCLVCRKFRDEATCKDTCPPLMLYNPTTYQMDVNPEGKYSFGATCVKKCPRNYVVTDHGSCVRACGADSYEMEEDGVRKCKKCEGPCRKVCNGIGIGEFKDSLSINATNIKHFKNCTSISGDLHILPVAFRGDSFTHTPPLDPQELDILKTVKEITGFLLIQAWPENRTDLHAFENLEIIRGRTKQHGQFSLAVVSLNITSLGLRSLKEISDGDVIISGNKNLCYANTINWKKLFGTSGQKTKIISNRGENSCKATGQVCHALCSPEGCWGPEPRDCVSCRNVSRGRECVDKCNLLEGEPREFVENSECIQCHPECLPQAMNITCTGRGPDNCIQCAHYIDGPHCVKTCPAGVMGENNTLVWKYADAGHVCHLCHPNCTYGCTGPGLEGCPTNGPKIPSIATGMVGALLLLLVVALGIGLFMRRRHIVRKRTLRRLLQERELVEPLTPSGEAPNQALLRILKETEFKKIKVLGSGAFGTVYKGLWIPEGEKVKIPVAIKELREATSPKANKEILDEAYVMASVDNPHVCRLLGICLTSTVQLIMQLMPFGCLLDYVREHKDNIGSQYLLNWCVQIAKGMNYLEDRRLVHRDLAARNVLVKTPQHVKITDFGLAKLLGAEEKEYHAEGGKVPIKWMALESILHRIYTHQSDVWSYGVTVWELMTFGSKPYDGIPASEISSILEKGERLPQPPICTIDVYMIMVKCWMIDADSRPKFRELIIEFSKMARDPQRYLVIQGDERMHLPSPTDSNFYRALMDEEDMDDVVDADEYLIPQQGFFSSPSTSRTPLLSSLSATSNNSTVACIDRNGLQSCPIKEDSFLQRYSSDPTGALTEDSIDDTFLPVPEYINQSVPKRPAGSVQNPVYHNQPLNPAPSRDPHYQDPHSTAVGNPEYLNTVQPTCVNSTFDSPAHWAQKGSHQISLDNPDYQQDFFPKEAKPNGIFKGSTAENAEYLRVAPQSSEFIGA

Regarding `C=CC(=O)Nc1ccc(OC)c(Nc2ncc(Cl)c(Nc3ccccc3C(=O)C(=O)N(C)C)n2)c1` [Example 67, N-(3-(5-chloro-4-(2-(2-(dimethylamino)-2-oxoactyl)phenylamino)pyrimidin-2-ylamino)-4-methoxyphenyl)acrylamide], on ALK (h), the “Activity (control) % ALK (h)” value stood at 13%. Further, at EGFR (h), the “Activity (control) % EGFR (h)” value is listed as 105%. Further, the IC50 in the series on A431 (EGFR WT) cells was determined as 110 nM; in series [1], 1580 nM; against EGFR (ErbB1) T790M, 18.9 nM; on EGFR (ErbB1) T790M L858R (setting [8]), 15.4 nM; on EGFR (ErbB1), 273 nM; against ALK it was 17.3 nM. In addition, the IC50 in [2] was 20 nM; at EGFR (ErbB1) L858R, 500 nM; in series [3], 20 nM. In addition, the “Activity (control) % EGFR (L858R) (h)” value at EGFR (L858R) (h) amounted to 85%. Further, the GI50 is > 1500 nM in [1], 20 nM in series [2] and 20 nM in [3]. Moreover, the “Activity (control) % EGFR (T790M, L858R) (h)” value on EGFR (T790M, L858R) (h) was 9%. The “Activity (control) % EGFR (T790M) (h)” value at EGFR (T790M) (h) is reported as 50%. Besides, the “activity against both activated and resistant T790M forms of EGFR in vitro cellular assays” value in series [4] is recorded as “potent activity”.
For `COc1cc(Nc2ncc(Cl)c(Nc3ccccc3C(=O)C(=O)N(C)C)n2)ccc1N1CCC(N(C)C)CC1` [Example 118, 2-(2-(5-chloro-2-(4-(4-(dimethylamino)piperidin-1-yl)-3-methoxyphenylamino)pyrimidin-4-ylamino)phenyl)-N,N-dimethyl-2-oxoacetamide], the “Activity (control) % ALK (h)” value at ALK (h) was 3%. For the same compound, the “Activity (control) % EGFR (h)” value at EGFR (h) amounted to 82%. The IC50 with A431 (EGFR WT) cells was 10 nM; in [1], 1890 nM; against EGFR (ErbB1) T790M, 4.92 nM; on EGFR (ErbB1) T790M L858R (setting [8]), 5.13 nM; against EGFR (ErbB1), 77.6 nM; at ALK it was 10.8 nM. Moreover, the IC50 in [2] came out at 20 nM; at EGFR (ErbB1) L858R it was 158 nM; in series [3], 10 nM. Besides, the “Activity (control) % EGFR (L858R) (h)” value at EGFR (L858R) (h) was 29%. Further, the GI50 in series [1] was > 1500 nM; in series [2], 20 nM; in series [3] it was 10 nM. The “Activity (control) % EGFR (T790M, L858R) (h)” value at EGFR (T790M, L858R) (h) is 2%. Besides, at EGFR (T790M) (h), the “Activity (control) % EGFR (T790M) (h)” value is 18%. In addition, the “activity against both activated and resistant T790M forms of EGFR in vitro cellular assays” value in series [4] is reported as “potent activity”.
The Cmax is the highest concentration seen after dosing. Take `CCOc1cc2ncc(C#N)c(Nc3ccc(OCc4ccccn4)c(Cl)c3)c2cc1NC(=O)/C=C/CN(C)C` [HKI-272]: the IC50 in series [5] was 200 to 800 nM. In addition, in series [6], the Cmax was ~200 nM.
For `C#Cc1cccc(Nc2ncnc3cc4c(cc23)OCCOCCOCCO4)c1` [Icotinib, reference compound], the IC50 against EGFR (ErbB1) T790M is > 1000 nM; on EGFR (ErbB1) T790M L858R (read-out: IC50, resistant mutant EGFR L858R/T790M), ≥ 16.6 nM; at EGFR (ErbB1) T790M L858R (setting [8]) it was > 1000 nM; against EGFR (ErbB1) it was 1.23 nM; on EGFR (ErbB1) L858R, 2.02 nM.
`C#Cc1cccc(Nc2ncnc3cc(OCCOC)c(OCCOC)cc23)c1` [erlotinib]: in the series with lung cancer patients, the “likelihood of tumor shrinkage (response rate)” value is listed as 8-10% and the “median time to tumor progression” value is listed as “approximately 2 months”. For the same compound, the radiographic response rates in [7] is 60-82%.

The values above are taken from patent US10059688B2, “Protein tyrosine kinase modulators and methods of use” (BETTA PHARMACEUTICALS CO., LTD., priority 2013, dated 2018).
